Our source for the cytotoxicity values is ChEMBL document CHEMBL3507680, “University of Dundee, Gates Library screen for HepG2 cell viability”.

Each structure is given as a SMILES string.

The data set can be described thus: Human HepG2 cell viability assay in 384 well format. It is filed as toxicity, cell-based. Conditions: HepG2 cells, read-out: Inhibition. The arrangement: dose 125 nL, time 70.5 hour; concentration not given beside the values.
In the case of `COCC(=O)N1CCN(C(=O)Cc2cccs2)[C@H]2CS(=O)(=O)C[C@H]21`, the cytotoxicity at 70.5 h is -5.46%.
Under `O=C(NCCN1CCOCC1)NCc1ccc(-n2cccn2)cc1` stands 1.89%; under `CCN(CC)Cc1ccc(C(=O)NC2CCc3ccccc32)o1` (stereo not given), 21.6%; under `COc1cccc(CNC(C)Cn2cccn2)c1OC` (stereo not given), 2.73%.
In the case of `CC(C)=CCC1(CO)CCCN(S(C)(=O)=O)C1` (stereo not given) it was 1.79%; in that of `Cc1nc(C(NS(=O)(=O)N(C)C)c2ccccc2F)no1` (stereo not given), -2.92%; in that of `COCC(O)CN1CCC(NC(=O)c2cccc(C)c2)CC1` (stereo not given), -2.52%.
Under `Cc1cc(C)nc(Nc2cccc(C3CCCN(C)C3)n2)n1` (stereo not given) stands 0.625%; under `O=C(NCCOc1ccc(Cl)cn1)NCCc1ccccn1`, -3.16%; under `O=C(CN1C(=O)c2ccccc2CS1(=O)=O)c1ccc(Cl)cc1`, 7.63%.
For `Cc1nc(CCCNC(=O)c2c(F)cccc2Br)n[nH]1`, the cytotoxicity at 70.5 h stood at 3.62%.
In the case of `CNCC(=O)N[C@H]1CN(c2nc(C)c3c(n2)CCCC3)C[C@@H]1C1CC1` it was -11.2%; in that of `Cc1nn(C)c2c(=O)n(CC(=O)NCCN3CCCCCC3)ccc12`, -4.19%.
Under `CSCC(=O)NC1CCN(C(C)c2ccccc2)CC1` (stereo not given) stands -6.02%; under `CC(C)(C)CC(=O)NS(=O)(=O)c1ccc(F)cc1C(F)(F)F`, -1.73%; under `COCCC(=O)N1CC[C@@H](N(C)C)[C@@H]1Cc1ccccc1`, -3.88%.
In the case of `CC1c2ncc(CN3CCN(C)CC3)n2CCN1Cc1cnn(C)c1` (stereo not given), the cytotoxicity at 70.5 h worked out at 13.6%.
For `O=C(NCc1nccs1)N1CCOC(c2ccccc2Cl)C1` (stereo not given), the cytotoxicity at 70.5 h is 10.9%.
Under `COC(=O)c1ccoc1CN(C)CC(=O)NC1CC1` stands -5.08%.
In the case of `O=C(CC1CC1)N[C@@H]1CN(Cc2ccncc2)C[C@@H]2CCCO[C@@H]21` it was -0.814%; in that of `Nc1nccnc1CC1CCCN(Cc2cccc3[nH]ccc23)C1` (stereo not given), 0.122%; in that of `Cc1cc(C(=O)NCc2cccnc2N2CCCC(O)C2)[nH]n1` (stereo not given), -16.1%.
In the case of `Cc1ccnc(NCCCN2CCc3ccccc32)n1` it was -2.9%; in that of `CN(C)Cc1nnc(C2CCCN(Cc3ccc(Cl)s3)C2)n1C` (stereo not given), 5.14%; in that of `O=C(N1CCCCC1)N1CCCC(c2ncncc2-c2ccncc2)C1` (stereo not given), -8.3%.
As to `CCN(Cc1cc(Cl)c(O)c(OC)c1)Cc1nc(COC)no1`, the cytotoxicity at 70.5 h is -4.93%.
On to `CS(=O)(=O)N1Cc2nccn2CC(CN2CCCC2)C1` (stereo not given), for which the cytotoxicity at 70.5 h is -3.59%.
In the case of `Cc1cnc(C(C)(C)NC(=O)NCc2ccon2)s1` it was -9.99%; in that of `COCCOc1ccc(CNc2nc3ccccc3o2)cn1`, -10.8%; in that of `O=C(O)C1(Oc2ccc3ccccc3c2)CCN(c2ccncc2)CC1`, 21.4%.
Under `COc1ccc(C[C@H]2CN(C(=O)C3CC3)CC[C@H]2OC)cc1` stands 21.5%.
In the case of `c1cc(C2CCN(Cc3nc(C4CC4)no3)CC2)[nH]n1` it was -6.11%.
In the case of `CS(=O)(=O)N[C@@H]1CN(Cc2ccoc2)C[C@@H]2CCCO[C@@H]21`, the cytotoxicity at 70.5 h is -8.39%.
In the case of `COCc1ncn2c1CN(S(=O)(=O)Cc1ccc(C)cc1)CC2` it was -10.2%.
Under `O=C1CSC(c2ccc(O)c(Cl)c2)c2c(n(C3CCOCC3)[nH]c2=O)N1` (stereo not given) stands 6.82%.
Under `c1cnnc(NCC2CN(CCn3cncn3)CCO2)c1` (stereo not given) stands 11.7%.
In the case of `O=C(Nc1ccc2c(c1)OC1(CCCCC1)O2)c1ccc(=O)[nH]n1`, the cytotoxicity at 70.5 h amounted to 0.889%.
In the case of `CCNc1cc2c(nn1)CCN(C(=O)CC1CCCCC1)C2` it was -4.16%.
Under `Cc1ccc2cc(CN(C)Cc3nccs3)c(=O)[nH]c2c1` stands -11.3%.
In the case of `COC(=O)CN1CCC(C(=O)c2cc(F)ccc2F)CC1` it was -3.39%.
Consider `COCCC(=O)N1Cc2[nH]nc(COc3cccnc3)c2C1`, for which the cytotoxicity at 70.5 h is -13.5%.
Under `CCc1nc(C)c([C@H]2CN(C)C[C@@H]2C(=O)NCc2ccccn2)[nH]1` stands -2.64%; under `CCn1c(N)nc2cc(C(=O)N3CCN(c4ccncc4)CC3)cnc21`, -2.2%; under `COCCCNC(=O)NCc1ccc(C)cc1`, 8.59%.
In the case of `Cc1nc(N2CCN(C(=O)CC3CCCC3)CC2)c2cnn(C)c2n1`, the cytotoxicity at 70.5 h came out at 0.786%.
Under `COc1cccc(CN2CCC3(CC(Nc4ccncn4)C3)C2)c1F` (stereo not given) stands 2.19%.
Under `FC(F)(F)c1c[nH]c(C2CCN(c3ncccn3)CC2)n1` stands -15.4%; under `Cc1ccnn1CCC(=O)N(Cc1ccsc1)CC(C)C`, -2.24%.
Under `CCS(=O)(=O)Cc1nnnn1-c1ccccc1` stands -8.76%.
As for `CC(C)C(C(=O)N1CCC(Nc2cccnn2)CC1)n1cncn1` (stereo not given), the cytotoxicity at 70.5 h was -11.9%.
In the case of `CN(C(=O)CCc1ccncc1)C1CCCN(CCc2ccccc2)C1` (stereo not given) it was -7.17%; in that of `Cc1nnc(C2CCN(C(=O)c3ccc4nccnc4c3)CC2)s1`, -8.52%; in that of `Cc1cnn(CC2CCCCN2CC(=O)Nc2cccnc2)c1` (stereo not given), 0.635%.
Regarding `CCCOc1cc(C)ccc1NC(=O)N(C)C`, the cytotoxicity at 70.5 h was 4.68%.
In the case of `CN(C)c1ncccc1CNC(=O)N1CCCC1c1cccs1` (stereo not given) it was 1.79%; in that of `CCOC(CC)C(=O)NCc1ccnc(Oc2ccc(F)cc2)c1` (stereo not given), -7.99%.
In the case of `O=C(c1cc(C2CC2)on1)N1C[C@@H]2COC[C@]2(COc2cccnc2)C1` it was -4%.
In the case of `O=C(c1cccc(-n2cnnc2)c1)N1C[C@@H](O)[C@H](N2CCOCC2)C1` it was -1.32%; in that of `Cc1ccc(S(=O)(=O)c2ncccc2CN2CCN(C)CC2)cc1`, -11.2%; in that of `N#Cc1ccc(F)c(CNC(=O)NC(CO)c2ccccc2)c1` (stereo not given), 13.7%.
On to `O=C1NCCN1C1CCN(CCOc2cccc3ccccc23)CC1`, for which the cytotoxicity at 70.5 h is 0.611%.
Under `CC(C)CCOCCNC(=O)Nc1ccc(F)c(C(N)=O)c1` stands -1.3%.
In the case of `Cc1ccc(CCNC(=O)NCCCC(N)=O)c(C)c1` it was 1.66%; in that of `O=C(NCCCN1CCCC1)c1n[nH]c(=O)c2ccccc12`, -9.07%; in that of `CC(C)c1cc(NC(=O)CNC2CCc3ncnn3C2)on1` (stereo not given), 11.4%.
Regarding `O=C1N(c2ccsc2)CCC12CCCN(c1ccccn1)C2` (stereo not given), the cytotoxicity at 70.5 h was found to be 5.29%.
In the case of `Cc1ccccc1CN1CCC2(COCc3cnc(N(C)C)nc32)C1` (stereo not given) it was 0.683%; in that of `COc1ccc(F)cc1C(C)NC(=O)c1nnc(C)s1` (stereo not given), -5.29%; in that of `CC(C)n1cc(CN2CCCN(C(=O)c3cc(Cl)c[nH]3)CC2)cn1`, 1.03%.
Under `N#Cc1nc(COc2ccc3c(c2)OCO3)oc1NC1CCCCC1` stands -28.5%.
In the case of `CCC[C@@H]1CN(Cc2nnc(-c3cccc(F)c3)o2)C[C@H]1NC(C)=O` it was -15.2%; in that of `CC(=O)Nc1ccc2c(c1)C1(CCOCC1)C(=O)N2c1ccsc1`, -9.04%; in that of `Cc1ccc([C@@H]2CN(C(=O)c3cccnn3)C[C@H]2NC(=O)C2CC2)cc1`, -8.66%.
For `Cc1nc(CNC(=O)CCN2CCN(c3ccccn3)CC2)oc1C`, the cytotoxicity at 70.5 h was found to be 6.4%.
Under `CC(=O)c1ccc(N2CCC3(CCC(=O)N(C4CC4)C3)CC2)nc1` stands -1.87%.
In the case of `O=C(c1ccc[nH]1)N1CCN(Cc2ccncc2)c2ncccc2C1` it was -11.6%.
In the case of `CCN1CC(C(=O)N2CCC(Oc3ccccc3C)CC2)CC1=O` (stereo not given) it was -7.02%; in that of `c1ccc(CN2CCC3(CC2)CN(c2ccccn2)CCO3)nc1`, -5.77%.
On to `CCCS(=O)(=O)NCC1OCCc2cn(CC3CCOCC3)nc21` (stereo not given), for which the cytotoxicity at 70.5 h came to 30.2%.
For the compound `Cc1cccc(-c2nc(CN3CCc4c(ncn4C)C3)no2)c1`, the cytotoxicity at 70.5 h came to 20.5%.
Under `Cc1ccc(-c2cc(CNC(=O)N3CCCN(C)CC3)on2)cc1` stands 2.1%; under `N#Cc1c(N)nc2c(c1-c1c[nH]nc1C1CCCCC1)COCC2`, 0.079%; under `O=C(NCC1(N2CCOCC2)CCSC1)Nc1ccccn1` (stereo not given), -9.14%.
Under `CN(Cc1ccccc1F)C(=O)c1cc(Cl)c[nH]1` stands -2.89%; under `Cc1ccc(C2(O)CCN(C(=O)Cn3cc(C)c(=O)[nH]c3=O)CC2)nc1`, -7.28%.
With `O=C1NCCCCC1NC(=O)C1(c2ccccc2)CCOCC1` (stereo not given), the cytotoxicity at 70.5 h is -1.6%.
For `Cc1cnn(CC2CCCN2C(=O)c2cccc(CC#N)c2)c1` (stereo not given), the cytotoxicity at 70.5 h is -22%.
In the case of `COc1cccc(C(=O)NCc2ccccc2S(=O)(=O)N(C)C)c1` it was -4.93%.
Under `CCOCc1ccc(NC(=O)C(C)C)cc1` stands 19.1%.
Under `c1cc2c(cc1-n1nc(C3CC3)nc1-c1csnn1)OCCO2` stands 2.73%; under `CSCCC(NC(=O)c1ccc2ccccc2n1)C(=O)N(C)C` (stereo not given), 18%; under `Cc1cc(C)nc(Nc2cccc(C3CCCN(CCO)C3)n2)n1` (stereo not given), -4.13%.
For the compound `CC(C)(C)C(NCC(=O)N1CCNC(=O)C1)c1ccccc1` (stereo not given), the cytotoxicity at 70.5 h is -107%.
In the case of `N#Cc1c(N)nc2c(c1-c1c[nH]nc1C1CCCCC1)CNCC2` it was 18.5%.
In the case of `O=C(NCc1cscn1)NC1CCN(c2ncccc2Cl)C1` (stereo not given) it was -2.49%.
Under `CN1C[C@@H](C(=O)NC(C)(C)C)[C@@]2(COc3ccc(F)cc3C2=O)C1` stands -1.75%.
Take `NC(=O)CS(=O)(=O)Cc1cc(Cl)c2c(c1)OCCCO2`: the cytotoxicity at 70.5 h came out at 13.8%.
For `COC(=O)CC(c1ccccc1)c1oc(C)cc(=O)c1O` (stereo not given), the cytotoxicity at 70.5 h was 6.19%.
Under `O=C1C[C@H]2[C@H](CCN2Cc2ccccn2)N1CC1CC1` stands -15.8%.
As to `COc1ccccc1CCNC(=O)NCC(=O)Nc1cccnc1`, the cytotoxicity at 70.5 h is -0.968%.
